The record followed here is patent publication US10053443B2, “2-phenylbenzofuran derivatives, method for preparing the same and use of the same for treating inflammatory disease” (KOREA RESEARCH INSTITUTE OF BIOSCIENCE AND BIOTECHNOLOGY, priority 2014, dated 2018).

One experiment deals with interleukin 13. Put plainly: Interleukin 13 in bronchoalveolar lavage fluid of asthma mice (ELISA). It counts as in vivo, mouse. The conditions noted are these: OVA asthma Balb/c mice, 5 or 15 mg/kg PO, FIG. 3. Here is the method: (§1) 6 week old Balb/c female mice in the average weight of 20 g were adapted for 1 week. 2 mg of aluminum hydroxide (A8222, Sigma, St. Louis, Mo.) and 20 μg of ovalbumin (A5503, sigma, St. Louis, Mo.) were suspended in phosphate buffer (pH 7.4). Each mouse was administered with 200 μl of the phosphate buffer suspension via intraperitoneal injection for sensitization at 2 weeks intervals. The mouse was forced to inhale 1% ovalbumin (OVA) through ultrasonic atomizer for 30 minutes a day for 3 days after the first intraperitoneal injection of ovalbumin. 24 hours after the antigen administration, airway hyperreactivity was measured. 48 hours later, a lethal dose of pentobarbital (Entobar, Hanlim Pharma. Co., Ltd.) was administered to the mouse. The bronchus was opened and the alveoli were washed with 1.4 ml of saline. Then, the test samples were obtained. The normal control (NC) was not administered with ovalbumin nor inhaled. The asthma induced group (OVA) was administered with ovalbumin and inhaled to induce bronchial asthma. […]
(§2) After performing the experiment of Experimental Example <3-1> above, Th2 cytokine (interleukin 5, 13) in bronchoalveolar was measured by sandwich type enzyme immunoassay. […] The content of each cytokine was measured using the kit according to the manufacturer's instruction.
(In general: ELISA stands for enzyme-linked immunosorbent assay.)

The test system of experiment [1] is interleukin-6 (IL-6) generation. Briefly: Inhibition of interleukin-6 (IL-6) generation in LPS-treated Raw 264.7 cells (ELISA). It counts as cell-based, mouse. The conditions noted are these: Mus musculus, RAW264.7; Raw 264.7, LPS treated; read-out: Grades of IC50 on IL-6 generation. As to the method:
Raw 264.7 cells were distributed by the same manner as described in Experimental Example <2-1>, and IL-6 included in the supernatant treated with each sample at different concentrations was measured by enzyme-linked immunosorbent assay (IL-6 ELISA kit, BD Bioscience, San Diego, Calif.).
(§3) Particularly, 10-fold diluted supernatant was distributed in a 96-well plate on which IL-6 antibody was attached, followed by adhesion for 2 hours. The supernatant remaining after the adhesion was washed with a washing buffer. The detection antibody and HRP were adhered on the washed plate for 1 hour. The remaining antibody was washed. Color development was induced by using TMB substrate. The reaction was terminated with sulfuric acid solution. Then, OD450 was measured. IL-6 in the supernatant was quantified by using the standard curve made with the standard IL-6 included in the kit. IL-6 suppression rate was calculated by measuring the same concentration that could inhibit IL-6 generation up to 50% in the LPS treated group and the results are shown in Table 8.

Another experiment concerns interleukin 5. Put plainly: Interleukin 5 in bronchoalveolar lavage fluid of asthma mice (ELISA). It counts as in vivo, mouse. To be noted: OVA asthma Balb/c mice, 5 or 15 mg/kg PO, FIG. 2. As to the method:
as §1, §2

The subject of experiment [2] is Tumor Necrosis Factor Alpha (TNF-alpha). Put plainly: Inhibition of TNF-alpha generation in LPS-treated Raw 264.7 cells (ELISA). It counts as cell-based. To be noted: Mus musculus, RAW264.7; Raw 264.7, LPS treated; read-out: Grades of IC50 on TNF-alpha generation. Here is the method: Raw 264.7 cells were distributed by the same manner as described in Experimental Example <2-1>, which were treated with the samples selected due to their high NO and IL-6 suppressing effect at different concentrations. TNF-alpha included in the supernatant was measured by enzyme-linked immunosorbent assay (TNF-alpha ELISA kit, R&D Systems, MN, USA).
as §3, with “100-fold” for “10-fold”, “TNF-alpha” for “IL-6”, “9.” for “8.”

In the case of `COc1cc(CCCO)cc2cc(-c3ccc(C)cc3)oc12` [Example 4, 3-(7-methoxy-2-p-tolylbenzofuran-5-yl)propane-1-ol], the “content of interleukin 13 in bronchoalveolar lavage fluid” value in the experiment with interleukin 13 is on record as “significantly reduced”. The IC50 in experiment [1] is ≤ 10 µM; in experiment [2], 1 to 3 µM. For the same compound, the “content of interleukin 5 in bronchoalveolar lavage fluid” value in the experiment with interleukin 5 is “significantly reduced”.
